Assay results from patent US20100144652A1, “COMPOSITION COMPRISING A GLYCOLYTIC INHIBITOR AND A RING SYSTEM COMPRISING A SULPHAMATE GROUP FOR THE TREATMENT OF CANCER” (Sterix Limited, priority 2007, published 2010).
“Also recorded” adds a separate entry of the source. Read-outs that look alike come from different tables or passages of the source.

Tests used:
[1] = cited from earlier work
[2] = cited from earlier work; remark: listed apart in the source
[3] = target: T1, steroid sulphatase (Homo sapiens, UniProt P08842); conditions: compared with EMATE; cited from earlier work
T1 sequence (P08842 22-583): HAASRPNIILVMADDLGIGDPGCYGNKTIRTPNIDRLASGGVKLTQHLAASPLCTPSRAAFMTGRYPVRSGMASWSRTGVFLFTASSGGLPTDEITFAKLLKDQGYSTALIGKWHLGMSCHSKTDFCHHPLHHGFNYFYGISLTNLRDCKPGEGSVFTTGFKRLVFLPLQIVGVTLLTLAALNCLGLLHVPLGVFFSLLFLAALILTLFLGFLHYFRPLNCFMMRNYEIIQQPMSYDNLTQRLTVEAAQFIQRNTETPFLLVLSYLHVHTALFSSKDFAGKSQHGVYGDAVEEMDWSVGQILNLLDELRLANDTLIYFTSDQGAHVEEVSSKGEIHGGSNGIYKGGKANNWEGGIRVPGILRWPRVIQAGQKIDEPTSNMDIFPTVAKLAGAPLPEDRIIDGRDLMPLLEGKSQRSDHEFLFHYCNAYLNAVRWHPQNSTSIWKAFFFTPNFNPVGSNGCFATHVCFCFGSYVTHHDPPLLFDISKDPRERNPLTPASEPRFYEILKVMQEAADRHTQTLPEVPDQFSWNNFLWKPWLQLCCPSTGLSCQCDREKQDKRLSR

[4] = system: MCF-7 cells; test: Measurement of ATP (ATPlite assay); type: cell-based; conditions: for ATP levels: MCF-7, 72 h, normoxia or hypoxia, 2DG 8 mM, STX140 0.1 μM-1 μM, vs untreated normoxic controls
Procedure: (§1) An Innova co-48 CO2 humidified incubator (Newbrunswick Scientific, St. Albans, U.K.) was used to study the effects of 2DG and STX140 on cells under hypoxic conditions. Oxygen was maintained at 1%, CO2 5% and temperature at 37° C.
(§2) MCF-7 and LNCaP cells were seeded at 3000 cells/well or 5000 cells/well respectively, in 96 well plates. Compounds were added 4 hours following seeding of cells. The ATPlite assay procedure was carried out according to manufacturer's instructions (Perkin Elmer, Beaconsfield, U.K.) and ATP measured 72 hrs later using a FluoStar Optima Plate reader.

[5] = system: LNCaP cells; test: Measurement of ATP (ATPlite assay); type: cell-based; conditions: 2DG 8 mM, 72 h; for ATP levels: normoxia or hypoxia, STX140 0.1 μM-1 μM, vs untreated normoxic controls
Procedure: as §1, §2

[6] = system: MCF-7 tumours; test: In vivo tumour xenograft model, MCF-7 cell tumours; conditions: athymic nude mice, STX140 5 mg/kg p.o. daily, 2DG 2 g/kg i.p. daily, 28 days, compared to control
Procedure: Intact, ovariectomized, athymic, female MF-1 nude mice (nu-/nu-) were purchased from Harlan (Bicester, Oxon, UK) at 5 weeks of age (˜20-25 g in weight). All experiments were carried out under conditions that complied with institutional guidelines. Animals were kept in a 12-hour light/12-hour dark cycle and given food and water ad libitum. Monolayers of MCF-7 cells were removed by trypsinization, and the resultant cell suspension was centrifuged for 5 min. at 1,000×g and then resuspended in ice-cold matrigel (BD Biosciences). Five million MCF-7 cells were injected s.c. into the right flank of the animals. The tumours were allowed to grow for 2 weeks, when the tumours reached 100-150 mm^3 in volume, mice were randomly divided into four treatment groups: 1) vehicle (10% tetrahydrofuran; 90% propylene glycol, […] oral)+saline i.p. 200 ml; 2) vehicle+2DG (2 g/kg) i.p. 200 ml; 3) STX140 (5 mg/kg) […] oral+saline i.p. 200 ml; 4) STX140 (5 mg/kg) […] oral+2DG (2 g/kg) i.p. 200 ml. All treatments were administered daily for 4 weeks, […]. Throughout the study, mice were weighed and tumour measurements were taken on a weekly basis. Tumour volumes were calculated using the formula: length×width^2/2. At the end of the study, tumours were collected for immunohistochemical analysis.

[7] = system: r^□ cells which have lost their mitochondrial DNA; conditions: Liu et al., 2001; cited from earlier work
[8] = system: MCF-7 cells; test: Cell morphology (microscopy); type: cell-based; conditions: MCF-7, STX140 0.5 μM, 2DG 8 mM, 96 h, normoxia
Source text: (§3) Cells were examined using a Zeiss inverted microscope fitted with a 20× and 40× Plan-Neofluor objective, and analysed through an Axiovision imaging system attached to the microscope.

[9] = system: LNCaP cells; test: Cell morphology (microscopy); type: cell-based; conditions: STX140 0.5 μM, 2DG 8 mM, 96 h, normoxia
Source text: as §3

[10] = system: von Willebrand's factor; test: von Willebrand's factor immunohistochemistry of xenograft sections (vessel density); type: in vivo, mice; conditions: sections of MCF-7 xenografts, STX140 5 mg/kg p.o. daily, 2DG 2 g/kg i.p. daily
[11] = system: MCF-7 cells; test: Proliferation assay (Alamar blue, microtiter plate); type: cell-based; conditions: Homo sapiens; for inhibition at 8000 µM / inhibition at 0.5 µM: MCF7, 72 h; for inhibition at 8000 µM: MCF-7, 2DG alone 8 mM, 72 h, read-out: inhibition of cell growth
Procedure: (§4) MCF-7 and LNCaP cells were obtained from the American Tissue Culture Collection (ATCC). Cells were cultured in the following supplements, obtained from Sigma: RPMI 1640 with 10% foetal bovine serum, 1% L-glutamine, 1% MEM non-essential amino acids, 1% sodium bicarbonate solution, LNCaP cells also required 1% sodium pyruvate. Cells were maintained in an incubator at 37° C. under 5% CO2 and 95% air atmosphere.
(§5) MCF-7 and LNCaP cells were seeded at 3000 cells/well or 5000 cells/well respectively, in 96 well plates. Compounds were added 4 hours after seeding of cells. […]
as §1

[12] = system: LNCaP cells; test: as above; type: cell-based; conditions: Homo sapiens; for inhibition at 8000 µM: 2DG alone 8 mM, read-out: inhibition of cell growth
Procedure: as §4, §5, §1

[13] = target: p-glycoprotein (Homo sapiens, UniProt P08183); conditions: Suzuki, 2003; cited from earlier work
[14] = system: LNCaP cells; conditions: previously calculated by Day and Newman, read-out: IC50, inhibition of proliferation; cited from earlier work
[15] = system: breast cancer cells; conditions: Raobaikady et al., 2003; cited from earlier work
[16] = system: HUVEC cells; conditions: Newman et al., 2004; cited from earlier work
[17] = system: vessel formation; conditions: novel co-culture model system, Newman et al., 2004; cited from earlier work
[18] = system: MCF-7 cells; conditions: MCF-7, previously calculated by Day and Newman; read-out: IC50, inhibition of proliferation; cited from earlier work

Sequence of p-glycoprotein (P08183 whole entry): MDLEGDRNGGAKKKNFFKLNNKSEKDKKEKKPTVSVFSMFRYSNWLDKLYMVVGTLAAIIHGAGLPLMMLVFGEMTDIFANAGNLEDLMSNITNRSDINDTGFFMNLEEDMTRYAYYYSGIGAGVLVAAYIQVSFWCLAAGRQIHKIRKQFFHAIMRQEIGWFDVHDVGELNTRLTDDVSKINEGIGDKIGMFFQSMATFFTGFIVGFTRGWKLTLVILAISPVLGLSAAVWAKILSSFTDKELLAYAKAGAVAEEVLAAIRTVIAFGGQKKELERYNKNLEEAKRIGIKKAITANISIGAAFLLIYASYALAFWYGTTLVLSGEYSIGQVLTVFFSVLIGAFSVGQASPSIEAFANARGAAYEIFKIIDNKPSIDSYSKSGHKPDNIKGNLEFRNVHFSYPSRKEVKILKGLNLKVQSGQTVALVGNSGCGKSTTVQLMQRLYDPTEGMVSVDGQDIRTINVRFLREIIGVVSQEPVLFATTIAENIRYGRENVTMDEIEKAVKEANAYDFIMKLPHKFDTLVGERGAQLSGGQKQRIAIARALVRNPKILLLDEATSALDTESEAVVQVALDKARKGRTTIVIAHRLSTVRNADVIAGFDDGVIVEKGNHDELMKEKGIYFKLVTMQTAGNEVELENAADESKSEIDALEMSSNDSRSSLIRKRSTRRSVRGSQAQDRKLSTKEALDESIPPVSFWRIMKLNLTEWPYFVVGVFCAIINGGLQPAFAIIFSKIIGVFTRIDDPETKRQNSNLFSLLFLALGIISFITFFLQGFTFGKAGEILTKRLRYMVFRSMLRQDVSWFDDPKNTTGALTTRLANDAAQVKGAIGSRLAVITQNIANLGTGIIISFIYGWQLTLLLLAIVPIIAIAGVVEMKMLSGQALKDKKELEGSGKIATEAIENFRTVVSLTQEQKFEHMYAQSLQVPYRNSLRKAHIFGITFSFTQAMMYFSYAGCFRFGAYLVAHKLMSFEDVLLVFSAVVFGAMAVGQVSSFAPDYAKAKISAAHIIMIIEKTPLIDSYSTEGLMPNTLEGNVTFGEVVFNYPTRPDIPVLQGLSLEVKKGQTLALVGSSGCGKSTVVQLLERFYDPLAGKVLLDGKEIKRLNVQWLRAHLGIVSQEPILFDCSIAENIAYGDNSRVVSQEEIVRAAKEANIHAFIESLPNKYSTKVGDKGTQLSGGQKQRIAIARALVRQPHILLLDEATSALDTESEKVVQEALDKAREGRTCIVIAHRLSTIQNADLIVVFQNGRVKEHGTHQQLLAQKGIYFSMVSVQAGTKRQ

## COc1cc2c(cc1O)CC[C@@H]1[C@@H]2CC[C@]2(C)[C@@H](O)CC[C@@H]12 [2-MeOE2, 2-methoxyoestradiol, reference compound]
[1]; in vivo, po
  oral bioavailability: very poor oral bioavailability

## COc1cc2c(cc1OS(N)(=O)=O)CC[C@@H]1[C@@H]2CC[C@]2(C)C(=O)CC[C@@H]12 [2-methoxyoestrone-3-O-sulphamate]
[2]; rat, in vivo
  oestrogenicity: devoid of oestrogenicity
[3]
  potency as steroid sulphatase inhibitor: equipotent with EMATE

## O=CC[C@@H](O)[C@H](O)[C@H](O)CO [2DG, 2-deoxy-D-glucose]
[4]; MCF-7, 2DG 8 mM, 72 h, vs untreated controls
  ATP per living cell: significantly decreases ATP
[4]
  ATP levels: decreases ATP
[5]; vs untreated controls
  ATP per living cell: significantly decreases ATP
[5]
  ATP levels: decreases ATP
[6]
  growth of MCF-7 tumours: did not significantly inhibit tumour growth
[7]
  sensitivity of cells lacking mitochondrial DNA relative to wt cells: 10 times
[8]
  cell morphology: cells appear to swell up
[9]
  cell morphology: cells appear to swell up
[10]
  von Willebrand's factor staining for endothelial cells (blood vessels): no significant effect
[11]; hypoxic
  inhibition at 8000 µM: 70%
[11]; normoxic
  inhibition at 8000 µM: 50%
[11]; MCF7, 120 h, MCF-7, 5 day period, normoxic conditions, read-out: IC50, inhibition of proliferation
  IC50: 8100 µM
[12]; 72 h, hypoxic, 72 h
  inhibition at 8000 µM: 75%
[12]; 72 h, normoxic, 72 h
  inhibition at 8000 µM: 50%
[12]; 120 h, 5 day period, normoxic conditions, read-out: IC50, inhibition of proliferation
  IC50: 6700 µM

## C[C@]12CC[C@@H]3c4ccc(OS(N)(=O)=O)cc4CC[C@H]3[C@@H]1CCC2=O [EMATE, oestrone-3-O-sulphamate]
[2]; rats, oral
  oral uterotrophic activity relative to estradiol: 100 times

## COc1cc2c(cc1OS(N)(=O)=O)CCC1C2CC[C@]2(C)C(OS(N)(=O)=O)CCC12 (stereo partly shown) [STX140, 2-Methoxyestradiol-3,17-O,O-bis-sulfamate]
[4]
  ATP levels: drops significantly
[5]
  ATP levels: drops significantly
[6]; 5 mg/kg
  growth of MCF-7 tumours: significantly inhibited
[13]
  substrate for p-glycoprotein: not a substrate for p-glycoprotein
[14]
  IC50: 0.26 µM
[15]
  potency as inhibitor of breast cancer cells compared to 2-MeOE2: 6 times
[8]
  cell morphology: shrivelled appearance
[9]
  cell morphology: shrivelled appearance
[16]
  inhibition of proliferation of HUVEC cells compared to 2-MeOE2: 60 fold
[10]; 5 mg/kg
  von Willebrand's factor staining for endothelial cells (blood vessels): decrease in blood vessels; also recorded: significant reduction
[11]; read-out: inhibition of cell proliferation, MCF-7, STX140 0.5 μM, hypoxia, 72 h, vs normoxic untreated controls
  inhibition at 0.5 µM: 48%
[11]; read-out: inhibition of cell proliferation, MCF-7, STX140 0.5 μM, normoxia, 72 h, vs normoxic untreated controls
  inhibition at 0.5 µM: 45%
[12]; 72 h, read-out: IC50, inhibition of proliferation, LNCaP, hypoxic, 72 h
  IC50: 0.316 µM
[12]; 72 h, read-out: IC50, inhibition of proliferation, LNCaP, normoxic, 72 h
  IC50: 0.293 µM
[12]; 72 h, read-out: inhibition of cell proliferation
  inhibition at 0.5 µM: 65%
[17]
  activity as inhibitor of vessel formation compared to 2-MeOE2: 10-13 times
[1]; literature (Ireson 2004)
  oral bioavailability: orally bioavailable
[18]
  IC50: 0.25 µM
